As a reminder, the EC50 is the concentration giving half of the maximal effect. Low values mean an effect from little substance, high ones a need for much substance.

T1 sequence (O14842 whole entry): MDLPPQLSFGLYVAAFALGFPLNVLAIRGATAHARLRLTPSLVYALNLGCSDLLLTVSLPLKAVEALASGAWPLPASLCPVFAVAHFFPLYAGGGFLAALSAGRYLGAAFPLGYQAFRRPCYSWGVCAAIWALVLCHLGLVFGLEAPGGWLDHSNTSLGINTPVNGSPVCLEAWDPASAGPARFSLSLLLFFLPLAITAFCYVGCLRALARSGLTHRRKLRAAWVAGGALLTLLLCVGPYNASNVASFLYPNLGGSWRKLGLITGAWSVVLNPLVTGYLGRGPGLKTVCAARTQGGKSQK

One data set has as its target T1, human GPR40 (Homo sapiens, UniProt O14842).
T1 construct: host or cells: CHO-K1
The data set can be described thus: Inositol phosphate accumulation assay (IP1 HTRF) in CHO-K1 cells expressing human GPR40. In kind it is cell-based. Conditions: 90 min stimulation. As for the experimental part: CHO-K1 cells expressing human GPR40 were purchased from DiscoverX (95-1005C2). HEK293 cells expressing mouse FFAR1 were prepared using a mouse FFAR1 carrying plasmid purchased from OriGene Technologies (MR222997). The cells were transfected using Lipofectamine 2000 using manufacturer instructions and stable cell line was established from a single cell using geneticine selection. Assay ready frozen (ARF) cells were prepared and used throughout the study.
The assay was performed in a 384-well plate format using IP1 assay kit from Cis-Bio. ARF cells expressing FFAR1 (mouse and human) were thawed, washed and then plated in the appropriate medium (F12 based medium for CHO hFFAR1 and DMEM based medium for HEK293 mFFAR1—both were supplemented with 10% FBS and penicillin/streptomycin). 20 μL of 3.5×10^5 cells/mL were plated on a Poly D-Lysine coated 384-well white plate. The cells were then incubated for 16 hr at 37° C./5% CO2. After 16 hr the medium was removed and 15 μL of stimulation buffer containing the test compounds was added to the cells. The plates were then incubated for 90 min at 37° C./5% CO2. 5 μL of detection buffer (prepared as described in the IP-one kit) was added to each well and the plates were incubated at RT for 1 hr.
[…] was measured using ClarioSTAR plate reader, calculating the ratio between emissions at 665 nm and 620 nm (HTRF ratio). HTRF ratio for positive (Max) and negative (Min) controls were used to normalize HTRF data and generate values for % activity. EC50 and Max activity values were determined using a standard 4-parameter fit.
On the technique in general: TR-FRET usually uses a lanthanide donor and a delayed reading to cut background.
Consider `COc1ccc(CCCC(C)(C)C)c(N2CCC(COc3cccc([C@@H](C)CP(=O)(O)O)c3)CC2)c1` [Compound 20, (R)-(2-(3-((1-(2-(4,4-dimethylpentyl)-5-methoxyphenyl)piperidin-4-yl)methoxy)phenyl)propyl)phosphonic acid], for which the EC50 is above 1000 nM.
In turn, `COc1ccc(F)c([C@H]2CC[C@H](COc3cccc(C(CS(=O)(=O)O)C4CC4)c3)CC2)c1` (stereo partly drawn) [Compound 3, 2-cyclopropyl-2-(3-(((trans)-4-(2-fluoro-5-methoxyphenyl)cyclohexyl)methoxy)phenyl)ethanesulfonic acid] gave an EC50 above 1000 nM.
`COc1ccc(CCCC(C)(C)C)c(N2CCC(COc3cc([C@H](C)CP(C)(=O)O)ccn3)CC2)c1` [Compound 13, ((S)-2-(2-((1-(2-(4,4-dimethylpentyl)-5-methoxyphenyl)piperidin-4-yl)methoxy)pyridin-4-yl)propyl)(methyl)phosphinic acid]: the EC50 was 250 to 1000 nM.
Compound `COc1ccc(F)c([C@H]2CC[C@H](COc3cccc(C(C4CC4)C(C)P(=O)(O)O)c3)CC2)c1` (stereo partly drawn) [Compound 4, (1-cyclopropyl-1-(3-(((trans)-4-(2-fluoro-5-methoxyphenyl)cyclohexyl)methoxy)phenyl)propan-2-yl)phosphonic acid] registered a 50% effective concentration (EC50) above 1000 nM.
As to `COc1ccc(F)c([C@H]2CC[C@H](COc3cccc(C(CP(C)(=O)O)C4CC4)c3)CC2)c1` (single isomer, unassigned) [Compound 8, (2-cyclopropyl-2-(3-(((trans)-4-(2-fluoro-5-methoxyphenyl)cyclohexyl)methoxy)phenyl)ethyl)(methyl)phosphinic acid], the half-maximal effective concentration (EC50) lay within 50 to 250 nM.
In the case of `COc1ccc(F)c([C@H]2CC[C@H](COc3cccc(C(CP(=O)(O)O)C4CC4)c3)CC2)c1` (stereo partly drawn) [Compound 2, (2-cyclopropyl-2-(3-(((trans)-4-(2-fluoro-5-methoxyphenyl)cyclohexyl)methoxy)phenyl)ethyl)phosphonic acid], the half-maximal effective concentration (EC50) was above 1000 nM.
With `COc1ccc(F)c([C@H]2CC[C@H](COc3cccc(C(CP(=O)(O)OC)C4CC4)c3)CC2)c1` (stereo partly drawn) [Compound 1, methyl hydrogen (2-cyclopropyl-2-(3-(((trans)-4-(2-fluoro-5-methoxyphenyl)cyclohexyl)methoxy)phenyl)ethyl)phosphonate], the EC50 was 250 to 1000 nM.
On the same count and under the same terms, with `COc1ccc(CCCC(C)(C)C)c(N2CCC(COc3cc([C@@H](C)CP(C)(=O)O)ccn3)CC2)c1` [Compound 12, ((R)-2-(2-((1-(2-(4,4-dimethylpentyl)-5-methoxyphenyl)piperidin-4-yl)methoxy)pyridin-4-yl)propyl)(methyl)phosphinic acid] the figure was at most 50 nM; with `COc1ccc(F)c([C@H]2CC[C@H](COc3cccc(C(CP(C)(=O)O)C4CC4)c3)CC2)c1` (single isomer, unassigned) [Compound 6, (2-cyclopropyl-2-(3-(((trans)-4-(2-fluoro-5-methoxyphenyl)cyclohexyl)methoxy)phenyl)ethyl)(methyl)phosphinic acid], 50 to 250 nM.
Still for that read-out and setting: with `COc1ccc(F)c([C@H]2CC[C@H](COc3cccc(C(CP(C)(=O)O)C4CC4)c3)CC2)c1` (single isomer, unassigned) [Compound 7, (2-cyclopropyl-2-(3-(((trans)-4-(2-fluoro-5-methoxyphenyl)cyclohexyl)methoxy)phenyl)ethyl)(methyl)phosphinic acid] the figure was at most 50 nM.
Turning to `COc1ccc(CCCC(C)(C)C)c(N2CCC(COc3cccc([C@H](C)CP(C)(=O)O)c3)CC2)c1` [Compound 15, ((S)-2-(3-((1-(2-(4,4-dimethylpentyl)-5-methoxyphenyl)piperidin-4-yl)methoxy)phenyl)propyl)(methyl)phosphinic acid], the EC50 was at most 50 nM.
`COc1ccc(CCCC(C)(C)C)c(N2CCC(COc3cccc([C@@H](C)CP(C)(=O)O)c3)CC2)c1` [Compound 14, ((R)-2-(3-((1-(2-(4,4-dimethylpentyl)-5-methoxyphenyl)piperidin-4-yl)methoxy)phenyl)propyl)(methyl)phosphinic acid] showed a concentration for a half-maximal effect (EC50) of 50 to 250 nM.
As to `COc1ccc(CCCC(C)(C)C)c(N2CCC(COc3cc([C@@H](CP(C)(=O)O)C4CC4)ccn3)CC2)c1` [Compound 11, ((S)-2-cyclopropyl-2-(2-((1-(2-(4,4-dimethylpentyl)-5-methoxyphenyl)piperidin-4-yl)methoxy)pyridin-4-yl)ethyl)(methyl)phosphinic acid], the EC50 was at most 50 nM.
In turn, `COc1ccc(CCCC(C)(C)C)c(N2CCC(COc3cccc(CC(C)P(=O)(O)O)c3)CC2)c1` (stereo not drawn) [Compound 16, (1-(3-((1-(2-(4,4-dimethylpentyl)-5-methoxyphenyl)piperidin-4-yl)methoxy)phenyl)propan-2-yl)phosphonic acid] returned an EC50 above 1000 nM.
Compound `COc1ccc(F)c([C@H]2CC[C@H](COc3cccc(C(CP(C)(=O)O)C4CC4)c3)CC2)c1` (single isomer, unassigned) [Compound 5, (2-cyclopropyl-2-(3-(((trans)-4-(2-fluoro-5-methoxyphenyl)cyclohexyl)methoxy)phenyl)ethyl)(methyl)phosphinic acid] came in with a half-maximal effective concentration (EC50) of at most 50 nM.
On the same count and under the same terms, the same measure for `CC[C@H](Cc1cccc(OCC2CCN(c3cc(OC)ccc3CCCC(C)(C)C)CC2)c1)P(C)(=O)O` [Compound 17, ((R)-1-(3-((1-(2-(4,4-dimethylpentyl)-5-methoxyphenyl)piperidin-4-yl)methoxy)phenyl)butan-2-yl)(methyl)phosphinic acid]: 250 to 1000 nM.
For `COc1ccc(CCCC(C)(C)C)c(N2CCC(COc3cccc([C@@H](CP(C)(=O)O)C4CC4)c3)CC2)c1` [Compound 10, ((S)-2-cyclopropyl-2-(3-((1-(2-(4,4-dimethylpentyl)-5-methoxyphenyl)piperidin-4-yl)methoxy)phenyl)ethyl)(methyl)phosphinic acid], the concentration for a half-maximal effect (EC50) is at most 50 nM.
The compound `COc1ccc(F)c([C@H]2CC[C@H](COc3cc([C@@H](CP(C)(=O)O)C4CC4)ccn3)CC2)c1` [Compound 9, ((S)-2-cyclopropyl-2-(2-(((trans)-4-(2-fluoro-5-methoxyphenyl)cyclohexyl)methoxy)pyridin-4-yl)ethyl)(methyl)phosphinic acid] showed an EC50 of at most 50 nM.
Turning to `COc1ccc(CCCC(C)(C)C)c(N2CCC(COc3cccc([C@H](C)CP(=O)(O)O)c3)CC2)c1` [Compound 19, (S)-(2-(3-((1-(2-(4,4-dimethylpentyl)-5-methoxyphenyl)piperidin-4-yl)methoxy)phenyl)propyl)phosphonic acid], the EC50 was in the range of 250 to 1000 nM.
Consider `CC[C@@H](Cc1cccc(OCC2CCN(c3cc(OC)ccc3CCCC(C)(C)C)CC2)c1)P(C)(=O)O` [Compound 18, ((S)-1-(3-((1-(2-(4,4-dimethylpentyl)-5-methoxyphenyl)piperidin-4-yl)methoxy)phenyl)butan-2-yl)(methyl)phosphinic acid], for which the 50% effective concentration (EC50) was in the range of 250 to 1000 nM.

System in a further data set: not listed separately
As to the kind of experiment: In vivo plasma levels in mice. The conditions noted are these: male C57BL/6J mice, 30 mg/kg oral gavage, 2 h post-dose; total exposure x free fraction from plasma protein binding. As for the experimental part:
Male C57BL/6J mice 10-12 weeks old were dosed with test article (30 mg/kg) or vehicle by oral gavage. Animals were euthanized with carbon dioxide at 2 h or 5 h post dose. Blood was collected for measurement of plasma concentrations of test article. Unbound exposure was calculated by multiplying the measured total exposure by the free fraction as assessed from plasma protein binding.
Plasma protein binding to isotonic phosphate buffer (PBS) containing 10% C57 BL/6 mouse plasma was determined using equilibrium dialysis of plasma spiked with test article (2 μM) against a dialysis buffer (100 mM sodium phosphate and 150 mM NaCl). At the end of the dialysis (4 hr), aliquots of the plasma and buffer were processed by protein precipitation for LC-MS/MS analysis to quantitate the test article.
Results for exemplary compounds (total exposure in plasma and unbound exposure in plasma; ratio of EC50 to unbound exposure in plasma) are shown in Table 2.
For `COc1ccc(F)c([C@H]2CC[C@H](COc3cccc(C(CP(C)(=O)O)C4CC4)c3)CC2)c1` (single isomer, unassigned) [Compound 5, (2-cyclopropyl-2-(3-(((trans)-4-(2-fluoro-5-methoxyphenyl)cyclohexyl)methoxy)phenyl)ethyl)(methyl)phosphinic acid], the “Exposure (nM) (unbound), unbound exposure in plasma” value is 2.5 nM.

Still in this data set, the particulars now being: male C57BL/6J mice, 30 mg/kg oral gavage, 5 h post-dose; total exposure x free fraction from plasma protein binding.
Turning to `COc1ccc(F)c([C@H]2CC[C@H](COc3cc([C@@H](CP(C)(=O)O)C4CC4)ccn3)CC2)c1` [Compound 9, ((S)-2-cyclopropyl-2-(2-(((trans)-4-(2-fluoro-5-methoxyphenyl)cyclohexyl)methoxy)pyridin-4-yl)ethyl)(methyl)phosphinic acid], the “Exposure (nM) (unbound), unbound exposure in plasma” value is listed as 2.3 nM.

The data set is the same for the next values; noted with them: mouse, plasma; male C57BL/6J mice, 30 mg/kg oral gavage, 2 h post-dose; read-out: Exposure (nM), total exposure in plasma.
Consider `COc1ccc(F)c([C@H]2CC[C@H](COc3cccc(C(CP(C)(=O)O)C4CC4)c3)CC2)c1` (single isomer, unassigned) [Compound 5, (2-cyclopropyl-2-(3-(((trans)-4-(2-fluoro-5-methoxyphenyl)cyclohexyl)methoxy)phenyl)ethyl)(methyl)phosphinic acid], for which the concentration at 2 h is 8300 nM.

The data set is the same for the next values; noted with them: mouse, plasma; male C57BL/6J mice, 30 mg/kg oral gavage, 5 h post-dose; read-out: Exposure (nM), total exposure in plasma.
Regarding `COc1ccc(F)c([C@H]2CC[C@H](COc3cc([C@@H](CP(C)(=O)O)C4CC4)ccn3)CC2)c1` [Compound 9, ((S)-2-cyclopropyl-2-(2-(((trans)-4-(2-fluoro-5-methoxyphenyl)cyclohexyl)methoxy)pyridin-4-yl)ethyl)(methyl)phosphinic acid], the concentration at 5 h worked out at 1160 nM.
